Source: patent US20230242511A1, “FUSED PYRAZOLE AND IMIDAZOLE BASED COMPOUNDS AND USE THEREOF AS GLI1 INHIBITORS” (GLIXOGEN THERAPEUTICS LTD., priority 2020, published 2023)
Where two headings read alike, the source gives them in different places. Each block holds one molecule with its values, some of them ahead of it.

How the values were obtained:
EAE mouse model [1] = experiment: Efficacy EAE model, PLP139-151/CFA in SJL/L mice; type: in vivo; settings: daily 10 mg/Kg or 50 mg/Kg, until Day 57, vs vehicle
Protocol: (§1) N=12 for all groups except for dexamethasone which had n=5 (FIG. 1B).
Eight-weeks old female SJL/L mice were immunized on Day 1 with an emulsion of PLP139-151/CFA and injected with pertussis toxin to induce disease. At the start of clinical signs (Days 9-10), the animals were administered with compound 6 (Glx-077) at a daily dose of 10 mg/Kg or 50 mg/Kg, or with a vehicle (15% HP-β-CD in water) until completion of trial (Day 57). A graph, summarizing the results of this experiment is represented in FIG. 1A.

EAE mouse model [2] = experiment: Efficacy EAE model, MOG35-55/CFA in C57B16 mice; type: in vivo; settings: daily 10 mg/Kg, until Day 28, vs vehicle
Protocol: as §1
Thirteen-weeks old female C57B16 mice were immunized on Day 1 with an emulsion of MOG35-55/CFA and injected with pertussis toxin to induce disease. At the start of clinical signs (Days 9-10), the animals were daily administered with Glx-077, Glx-088P3, clemastine fumarate (at 10 mg/Kg) or vehicle (15% HP-β-CD in water) until completion of experiment (Day 28). Mice administered with dexamethasone were used as a positive control group. Clinical score of the mice was measured daily. A graph, summarizing the results of this experiment is represented in FIG. 1B.

Gli1 = experiment: Gli1-Luciferase Reporter Assay (Shh Light 2 cells); type: cell-based, mouse
Protocol: Cell line: Shh Light 2 cell line which is based on NIH3T3 mouse fibroblast cell line genetically modified to stably express the Firefly Luciferase reporter gene under the transcription control of Gli 1 binding sequence and the Renila Luciferase gene under a control pRL-SV40 promoter was licensed from Johns Hopkins University (JHU).
Cell culture: Cells are cultured in Complete Medium [formulated as DMEM, 10% FBS, 1% sodium pyruvate, 1% L-glutamine, 0.4 mg/ml G418, 0.15 mg/ml Zeocin] until 80% confluence is achieved. Once sufficient confluency is achieved, cells are detached from the 10 cm culture dish using trypsin-EDTA, washed in Growth Medium [formulated as DMEM, 10% FBS, 1% sodium pyruvate, 1% L-glutamine, 1% PenStrep] and resuspended in fresh Growth Medium at a concentration of 4.3*10^5 cells/ml. To a white 96-well plate […] of cells suspension is transferred and incubated in a humified incubator at 37° C. with 5% CO2 overnight until the cells reach confluency the following day.
On the following day, a 13 point 1:1 dilution of a stock 20 mM Gli 1 inhibitor compound in DMSO is performed and […] of each diluted Gli1 inhibitor compound is diluted in […] Assay Medium [formulated as DMEM, 2% FBS, 1% sodium pyruvate, 1% L-glutamine, 1% PenStrep]. The Growth Medium is removed from the cell-plated 96-well plate and […] of the diluted Gli1 inhibitor is transferred to each well and plates are incubated at 37° C. and 5% CO2 for 30 minutes.
Then, the plates are removed from incubator and Purmorphamine (a Smoothened agonist to induce Hedgehog signaling and Gli1 activation in cells) at a final concentration of […] is added to each well and the plates are reinserted to the incubator for 24 hours incubation. The following day, Firefly and Renila Luciferase levels are measured using the Dual-Glo Luciferase system and the ratio between the Firefly and Renila is calculated for normalization of signal. The ratio of the signal in the treated cells is plotted vs. compound concentration and the IC50 value of each compound is calculated by generating a non-linear regression curve using the 4PL function in GraphPad Prism 8 software.
The primary screening assay is based on a NIH3T3 mouse fibroblast cell line genetically modified to stably express the Firefly Luciferase reporter gene under the transcription control of Gli1 binding sequence and the Renila Luciferase gene under a control pRL-SV40 promoter. This assay allows the determination of a compound's IC50 value in inhibiting Gli1 activity.

Pharmacokinetic Study = type: in vivo; settings: for Cmax: in ng/mL (unit assumed)
Protocol: Compounds were formulated in 15% HP-b-CD in water (IV formulation was at pH=5.0 and PO was at pH=3.0). Blood was obtained from facial vein pre-dosing and at 0.083, 0.25, 0.5, 1, 2, 4, 8, 24 hours post dosing for a total of 9 time-points, semi-serial bleeding. For PO dosing, another group of animals (n=3) were terminated at 2 hours post dosing and brains were extracted to analyze brain exposure and calculate brain/plasma ratio. Lower limit of quantification (LLOQ) for brain and plasma samples was 1 ng/ml.

[3] = Mus musculus, Shh Light2, in-vitro, read-out: concentration inhibiting 50% of Gli1 activity
[4] = Shh Light 2 cell line, Purmorphamine-induced, 24 hours, read-out: Luciferase cell based IC50
[5] = Mus musculus, Shh Light2, Shh Light 2 cell line, Purmorphamine-induced, 24 hours, read-out: Luciferase cell based IC50

SMILES: Cn1c(-c2ccccc2Cl)nc2c1CN(Cc1nc3cccnc3o1)CC2 [Compound 6]
- clinical outcome (FIG. 1A) (EAE mouse model [1]): improvements in clinical outcome
- clinical outcome / clinical score (FIG. 1B) (EAE mouse model [2]): improvements in clinical outcome

SMILES: Cn1c(-c2ccccc2Cl)nc2c1CN(Cc1cnc3ccccc3n1)CC2 [Compound 11]
- IC50 (Gli1; [3]): < 17 nM

SMILES: Cc1nc(CN2CCc3nc(-c4ccccc4Cl)n(C)c3C2)nc2ccccc12 [Compound 12]
- IC50 (Gli1; Mus musculus, Shh Light2, benzyl series compounds, read-out: in-vitro efficacy IC50): 5.6 nM

SMILES: Cn1c(-c2ccccc2Cl)nc2c1CN(Cc1ncnc3ccccc13)CC2 [Compound 13]
- IC50 (Gli1; [3]): < 17 nM

SMILES: Cn1c(-c2ccccc2Cl)nc2c1CN(Cc1nc3ccccc3s1)CC2 [Compound 14]
- IC50 (Gli1; [3]): < 17 nM

SMILES: Cc1c2c(nn1-c1ccccc1Cl)CCC(N1Cc3c(F)ccc(C#N)c3C1)C2 (centres unmarked) [Glx-308]
- IC50 (Gli1; [5]): 55 nM

The next lines start with results.

- IC50 (Gli1; [4]): 0.18 nM
- AUCINF-plasma (Pharmacokinetic Study; IV, 2 mg/Kg): 517 ng·h/mL
- T½ (Pharmacokinetic Study; IV, 2 mg/Kg): 1.53 h
- % F (Pharmacokinetic Study; PO, 10 mg/Kg): 38%
- AUCINF-plasma (Pharmacokinetic Study; PO, 10 mg/Kg): 517 ng·h/mL
- T½ (Pharmacokinetic Study; PO, 10 mg/Kg): 1.5 h
- Brain levels 2 h post PO administration (Pharmacokinetic Study; PO, 10 mg/Kg): 123 ng/g
- Brain/plasma ratio (2 h) (Pharmacokinetic Study; PO, 10 mg/Kg): 208%
- Cmax (Pharmacokinetic Study; PO, 10 mg/Kg): 268
- % F (Pharmacokinetic Study; PO, 30 mg/Kg): 65.6%
- AUCINF-plasma (Pharmacokinetic Study; PO, 30 mg/Kg): 2674 ng·h/mL
- T½ (Pharmacokinetic Study; PO, 30 mg/Kg): 1.69 h
- Brain levels 2 h post PO administration (Pharmacokinetic Study; PO, 30 mg/Kg): 1104 ng/g
- Brain/plasma ratio (2 h) (Pharmacokinetic Study; PO, 30 mg/Kg): 236%
- Cmax (Pharmacokinetic Study; PO, 30 mg/Kg): 1199
SMILES: COc1cccc2c1CN(C1CCc3nn(-c4ccccc4Cl)c(C)c3C1)C2 (centres unmarked) [Glx-088P3]
- clinical outcome / clinical score (FIG. 1B) (EAE mouse model [2]): improvements in clinical outcome

- IC50 (Gli1; [4]): 7.1 nM
- AUCINF-plasma (Pharmacokinetic Study; PO, 10 mg/Kg): 748 ng·h/mL
- T½ (Pharmacokinetic Study; PO, 10 mg/Kg): 1.99 h
- Brain levels 2 h post PO administration (Pharmacokinetic Study; PO, 10 mg/Kg): 211 ng/g
- Brain/plasma ratio (2 h) (Pharmacokinetic Study; PO, 10 mg/Kg): 129%
- Cmax (Pharmacokinetic Study; PO, 10 mg/Kg): 698
SMILES: COc1cccc2c1CN(C1CCc3nn(-c4ccccc4Cl)c(C)c3C1)C2 (centres unmarked) [Glx-088RS]

- IC50 (Gli1; [5]): 12 nM
SMILES: Cc1c2c(nn1-c1ccccc1Cl)CCC(N1Cc3cccc(C#N)c3C1)C2 (centres unmarked) [Glx-322]

- IC50 (Gli1; [5]): 16.7 nM
SMILES: COc1ccc(C#N)c2c1CN(C1CCc3nn(-c4ccccc4Cl)c(C)c3C1)C2 (centres unmarked) [Glx-341]

- IC50 (Gli1; [5]): 172 nM
SMILES: COc1cccc2c1CN([C@H]1CCc3nn(-c4ccccc4Cl)c(C)c3[C@@H]1O)C2 [Glx-344A]

- IC50 (Gli1; [5]): 385 nM
SMILES: COc1cccc2c1CN(C1CCc3nn(-c4ccccc4Cl)c(C)c3[C@@H]1O)C2 (some centres unmarked) [Glx-344]

- IC50 (Gli1; [5]): 73 nM
SMILES: COc1cccc2c1CC(N1CCc3nn(-c4ccccc4Cl)c(C)c3C1)C2 (centres unmarked) [Glx-369]

- IC50 (Gli1; [5]): 430 nM
SMILES: COc1cccc2c1CN(C1CCc3nn(-c4ccccc4Cl)c(C)c3C1=O)C2 (centres unmarked) [Glx-402]
